Experimental data published in patent US11578055B2, “Triazacyclododecansulfonamide (“TCD”)-based protein secretion inhibitors” (KEZAR LIFE SCIENCES, priority 2018, dated 2023).
pEC50, pIC50: −log10 of the molar value. Structures can show the parent of a compound that is named as a salt. Where two headings read alike, the source gives them in different places.

What was measured:
[1] = tested on: multiple myeloma cell line NCl-H929; assay: H929 Cell Viability Assay; type: cell-based, human; settings: Homo sapiens, NCI-H929, 48 h
Experimental: The human multiple myeloma cell line NCl-H929 was cultured in Advanced RPMI 1640 media (Gibco®) supplemented with 6% fetal bovine serum, 2 mM Glutamine, and 1× Penicillin/Streptomycin. On the day of assay, cells were resuspended in RPMI 1640 media supplemented with 10% fetal bovine serum, 2 mM Glutamine, and 1× Penicillin/Streptmycin and plated in 384-well tissue culture plates and treated with compound dilutions in DMSO/media. Plates were incubated at 37° C., 5% CO2 for 48 hours. After 48 hours, Celltiter-Glo® (Promega) was added to each well and luciferase signal was quantified using Tecan Infinite M1000 Pro for cell viability determination.
(§1) For chemical structures that include one or more stereoisomers, but are illustrated without indicating stereochemistry, the assay data refers to a mixture of stereoisomers.

[2] = In Vitro Microsome Stability Assay (mouse); type: in vitro ADME
Experimental: (§2) Potassium phosphate (423 μL of a 0.1 M solution) was added to 8-strip deep well tubes followed by human, mouse, rat, or monkey microsomes (25 μL of a 20 mg/mL solution). The tubes were then placed on ice and the test article (2 μL of a 0.25 mM solution in DMSO) was added. The mixture was preincubated at 37° C. for 3 to 5 minutes (shaking at 150 rpm) then the reaction was initiated by adding 50 μL NADPH. An aliquot of samples (100 μL) were collected at 0 and 30 min and 200 μL of an acetonitrile mixture containing IS (compound 914) was added to quench the reaction. After centrifuging for 10 min at 4000 rpm, a mixed solution of the 20 μL of the supernatant (20 μL) plus 100 μL ACN/H2O (1:1) were injected for LC-MS/MS analysis. Liver microsome stability is assessed by the % remaining of compound at 30 min which is calculated using the following equation: [(AUCanalyteT=30/AUCIS)/(AUCanalyteT=0/AUCIS)]*100
as §1

[3] = tested on: PD1 signal sequence plus 10 amino acids fused to Gaussia Luciferase (PD1-ss+10aa/Gaussia Luciferase); assay: Dox Induced PD1-ss-Gluc Assay; type: cell-based; settings: 24 hr, read-out: 24 hr Dox Inducible PD1ssGluc 293FRT/TO: Mean IC50
Excerpt: FIp-In 293 T-REx™ cells were transfected with pcDNA™5/FRT/TO plasmid inserted with cDNA encoding Gaussia Luciferase fused to the 3′ end of cDNA encoding PD1 signal sequence plus 10 amino acids (N-[…]-C) (SEQ ID NO: 1). Transfected cells were selected for resistance to the selectable markers Hygromycin and Blasticidin to create a stable cell line that contained the PD1-ss+10aa/Gaussia Luciferase cDNA insert whose expression was regulated under the T-REx™ system. The day before assay, cells were trypsinized and plated in 384-well tissue culture plates. The next day, compound dilutions in DMSO/media containing doxycycline were added to the wells and incubated at 37° C., 5% CO2.
as §1

[4] = In Vitro Microsome Stability Assay (rat); type: in vitro ADME
Experimental: as §2, §1

[5] = In Vitro Microsome Stability Assay (monkey); type: in vitro ADME
Experimental: as §2, §1

[6] = tested on: multiple myeloma cell line U266B1; assay: U266 Cell Viability Assay; type: cell-based, human; settings: Homo sapiens, U-266, 48 hr
Experimental: The human multiple myeloma cell line U266B1 was cultured in RPMI 1640 media supplemented with 10% fetal bovine serum, 2 mM Glutamine, and 1× Penicillin/Streptomycin. Cells were plated in 384-well tissue culture plates and treated with compound dilutions in DMSO/media. Plates were incubated at 37° C., 5% CO2 for 48 hours. After 48 hours, Celltiter-Glo® (Promega) was added to each well and luciferase signal was quantified using Tecan Infinite M1000 Pro for cell viability determination.
For chemical structures that include one or more stereoisomers, but are illustrated without indicating stereochemistry, the assay data refers to a mixture of stereoisomers

[7] = In Vitro Microsome Stability Assay (human); type: in vitro ADME
Experimental: as §2, §1

[8] = tested on: full length TNFα (amino acids 1-233) fused to Gaussia Luciferase; assay: Dox Induced TNFα-FL-Gluc Assay; type: cell-based; settings: 24 hr, read-out: 24 hr Dox Inducible TNFaFLGluc 293FRT/TO: Mean IC50
Excerpt: FIp-In 293 T-REx™ cells were transfected with pcDNA™5/FRT/TO plasmid inserted with cDNA encoding Gaussia Luciferase fused to the 3′ end of cDNA encoding full length TNFα (amino acids 1-233). Transfected cells were selected for resistance to the selectable markers Hygromycin and Blasticidin to create a stable cell line that contained the TNFα-FL/Gaussia Luciferase cDNA insert whose expression was regulated under the T-REx™ system. The day before assay, cells were trypsinized and plated in 384-well tissue culture plates. The next day, compound dilutions in DMSO/media containing doxycycline were added to the wells and incubated at 37° C., 5% CO2.
as §1

[9] = H929, read-out: 48 hr H929 Viability Celltiter-Glo: Mean EC50
[10] = U266, read-out: 48 hr U266 Viability Celltiter-Glo: Mean EC50

| SMILES | pEC50 [1, 9] | Liver Microsome Stability-% Left after 30 min w/ NADPH (%) Mouse ([2]; mouse, 30 min, NADPH) [%] | pIC50 ([3]; 293FRT/TO) | Liver Microsome Stability-% Left after 30 min w/ NADPH (%) Rat ([4]; rat, 30 min, NADPH) [%] | Liver Microsome Stability-% Left after 30 min w/ NADPH (%) Monkey ([5]; monkey, 30 min, NADPH) [%] | pEC50 [6, 10] | Liver Microsome Stability-% Left after 30 min w/ NADPH (%) Human ([7]; human, 30 min, NADPH) [%] | pIC50 ([8]; 293FRT/TO) | pEC50 ([1]; H929, Celltiter-Glo) | Liver Microsome Stability-% Left after 30 min w/ NADPH (%) Mouse ([2]; mouse liver microsomes, 30 min w/ NADPH) [%] | pIC50 ([3]; Dox inducible, 293FRT/TO cells) | Liver Microsome Stability-% Left after 30 min w/ NADPH (%) Rat ([4]; rat liver microsomes, 30 min w/ NADPH) [%] | Liver Microsome Stability-% Left after 30 min w/ NADPH (%) Monkey ([5]; monkey liver microsomes, 30 min w/ NADPH) [%] | pEC50 ([6]; U266, Celltiter-Glo) | Liver Microsome Stability-% Left after 30 min w/ NADPH (%) Human ([7]; human liver microsomes, 30 min w/ NADPH) [%] | pIC50 ([8]; Dox inducible, 293FRT/TO cells) |
| --- | --- | --- | --- | --- | --- | --- | --- | --- | --- | --- | --- | --- | --- | --- | --- | --- |
| CN(C)c1ccc(S(=O)(=O)N2CCCN(CC3CCCCC3)CCCN(S(=O)(=O)N3CCCCC3)CC3(CC3)C2)cc1 [A19, 4-((9-(cyclohexylmethyl)-13-(piperidin-1-ylsulfonyl)-5,9,13-triazaspiro[2.11]tetradecan-5-yl)sulfonyl)-N,N-dimethylaniline hydrochloride] | < 4.60 | 0.24 | 6.49 | 0.1 | 0.08 | 4.66 | 0.05 | < 4.60 |  |  |  |  |  |  |  |  |
| C=C1CN(S(=O)(=O)c2ccc(N(C)C)cc2)CCCN(CC2CCCCC2)CCCN(S(=O)(=O)N2CCC(C#N)CC2)C1 [A39, 1-{[9-(cyclohexylmethyl)-5-[4-(dimethylamino)benzenesulfonyl]-3-methylidene-1,5,9-triazacyclododecan-1-yl]sulfonyl}piperidine-4-carbonitrile] | < 4.60 | 0.26 | 6.12 | 6 | 0.11 | 4.98 | 0.05 | < 4.60 |  |  |  |  |  |  |  |  |
| C=C1CN(S(=O)(=O)c2ccc(N(C)C)cc2)CCCN(CC2CCCCC2)CCCN(S(=O)(=O)N2CCN(c3ccccc3)C(=O)C2)C1 [A48, 4-{[9-(cyclohexylmethyl)-5-[4-(dimethylamino)benzenesulfonyl]-3-methylidene-1,5,9-triazacyclododecan-1-yl]sulfonyl}-1-phenylpiperazin-2-one] | < 4.60 | 0.07 | 6.00 | 0.4 | 0.1 | < 4.60 | 0.19 | < 4.60 |  |  |  |  |  |  |  |  |
| CN(C)c1ccc(S(=O)(=O)N2CCCN(CC3CCCCC3)CCCN(S(=O)(=O)N3CCCCC3)C2)cc1 [B4, 4-{[7-(cyclohexylmethyl)-3-(piperidine-1-sulfonyl)-1,3,7-triazecan-1-yl]sulfonyl}-N,N-dimethylaniline] |  |  |  |  |  |  |  |  | < 4.60 | 2.21 | < 4.60 | 2.79 | 1.7 | 4.78 | 12.1 | < 4.60 |
| COc1ccc(F)cc1N1CCN(S(=O)(=O)N2CCCN(CC3CCCCC3)CCCN(S(=O)(=O)c3ccc(N(C)C)cc3)C[C@H](C)C2)CC1 [A176] |  |  |  |  |  |  |  |  | 5.51 |  |  |  |  | < 4.60 |  |  |
| C=C1CN(S(=O)(=O)c2ccc(N(C)C)cc2)CCCN(CC2CCCCC2)CCCN(S(=O)(=O)N2CCC(C3CCCCC3)CC2)C1 [A65, 4-{[9-(cyclohexylmethyl)-5-[(4-cyclohexylpiperidin-1-yl)sulfonyl}-3-methylidene-1,5,9-triazacyclododecan-1-yl]sulfonyl}-N,N-dimethylaniline] | < 4.60 | 73.4 | 6.81 | 78 | 57.8 | < 4.60 | 53.1 | 5.06 |  |  |  |  |  |  |  |  |
